# Entries after “also recorded” stand apart in the source; their conditions may differ.
# Experiments:
# [1] = tested on: occludin, ZO-1, ZO-2, claudin-5, E-cadherin, JAM; test: Accumulation of tight and adherens junction proteins in C2 cells (immunoblot of insoluble fraction, confocal microscopy); format: cell-based, human
# Method: To find out how the peptide exerts its cytoprotective effect, C2 cell monolayers were treated with AMP peptide, and oxidant injury was induced with monochloramine 18 hours later. Changes in the levels of specific tight junction (TJ) proteins were checked. Cells were lysed, and proteins of the insoluble/particulate fraction were studied by immunoblotting. […] This observation represents the first evidence that AMP peptide enhances accumulation of specific TJ proteins in colonic epithelial cells. […] To carry out this experiment, C2 cells were exposed to AMP peptide for different periods of time, the NP-40-insoluble fraction was obtained, Western blots were prepared, and the amount of each immunoreactive protein was quantified. A 65% increase in immunoreactivity of each protein compared to control was detected for occludin after 2 hr, and for ZO-1 at 8 hr. Hsc73, which is constitutively expressed in these cells, was not altered by exposure to AMP peptide for up to 18 hr.
# Confluent monolayers of C2 cells were treated with AMP peptide or vehicle for 8 hr. Cells were then collected, proteins in the NP-40-insoluble fraction were separated by SDS-PAGE, immunoblots were prepared, and the relative amounts of immunoreactive proteins were compared by densitometric analysis. […] These changes appear relatively specific for occludin, ZO-1, ZO-2, claudin-5, E-cadherin, and JAM because they were not observed for several other proteins localized in the TJ (claudin-1, claudin-2), adherens junction (β-catenin), plasma membrane (Na-K-2Cl cotransporter, α or β subunit of Na-K-ATPase), or cytosol (Rho A, hsc73).
# To better understand the mechanism(s) by which AMP peptide enhances accumulation of TJ-associated proteins, experiments were performed to determine whether the peptide exerted its effect at the apical or basolateral surface of C2 cells. Monolayers of C2 cells were grown on Transwell filters, AMP peptide (8:g/ml) was added to the apical or basolateral compartment of the Transwell, and cells were harvested 8 hr later. The NP-40-insoluble fraction was obtained, its proteins separated, and immunoblots were prepared.
# HeLa cells = test: Growth of HeLa cells (non-GI control); format: cell-based, human; settings: peptide up to 8 μg/ml
# Method: (§1) To characterize the capacity of gastric and intestinal cells to respond to AMP-18, AGS gastric adenocarcinoma cells, HAE human gastric antrum mucosa primary cultures transformed with SV40 large T antigen, rat diploid small intestinal epithelial cells of the IEC-6 (FIG. 15) and IEC-18 lines, NCI N-87 gastric carcinoma cells, and SK-GT5 gastroesophageal adenocarcinoma cells were studied; human WI-38 fibroblasts and HeLa cells served as non-GI control cell lines. Mitogenesis was assayed by performing cell counts 3 to 4 days after exposing cells to the agent of interest, trypsinizing the culture to prepare single cells, and confirming this while counting them in a hemocytometer.
# NCI N-87 cells = test: Growth of NCI N-87 gastric carcinoma cells; format: cell-based; settings: concentration-dependent
# Method: as §1
# [2] = tested on: mice with DSS-induced colitis; test: DSS-induced colitis in mice (blood in stool, body weight); format: in vivo, C57BL/6 male mice; settings: P<0.01
# Method: FIG. 27, Left Panel: Effect of AMP peptide on appearance of blood in the stool of mice with DSS-induced colitis. Mice (n=50) were given 3% dextran sulfate sodium, and stools were assayed daily for the presence of blood. Appearance of bloody diarrhea was delayed in animals treated with AMP peptide (10 mg/kg body weight/day) compared to those given the vehicle (P<0.01). Right panel: Effect of treatment with AMP peptide on body weight of mice with DSS colitis. After animals (n=20) received 3% DSS to drink for 4 days, they were switched to water (day 0 on graph).
# To evaluate the therapeutic efficacy of AMP peptide in vivo, colitis of mild to moderate severity was induced in C57BL/6 male mice by giving the animals DSS (3%) dissolved in tap water to drink ad libitum. Evidence of colitis (blood in the stool assayed by hemoccult strips) was found as early as day 1 (FIG. 27, left panel), and in all animals given injections of the vehicle subcutaneously (s.c.) by day 4. AMP peptide was administered s.c. one day before animals were given DSS, and once per day thereafter. Bloody stool was detected in fewer animals given AMP peptide than the vehicle (P<0.01; n=50).
# To look for a systemic effect of treatment with AMP peptide during the development of DSS colitis, body weight was measured. During the first 4 days of DSS administration, body weight changed little in peptide- or vehicle-treated mice. Then DSS was discontinued, the animals were given water to drink (day 0; FIG. 27, right panel), and measurements of weight were continued. […] Because DSS treatment appeared to injure barrier function in monolayer cultures of C2 cells, assessed as a decrease in TER (FIG. 22) and reduced occludin in the detergent-insoluble fraction (FIG. 36), a question was whether DSS might adversely affect the content of this TJ protein in vivo. […] Occludin levels in the NP-40-insoluble fraction were assessed by immunoblotting. […]
# Streptococcus agalactiae = test: Growth of other bacteria and fungi; format: cell-based
sequence,measurement,setting,value
"LDALVKEKKLQGKGPGGPPPK [97–117, peptide 77-97 of the mature protein, same as 97-117 of the human precursor]","changes in claudin-1, claudin-2, β-catenin, Na-K-2Cl cotransporter, Na-K-ATPase subunits, Rho A, hsc73",[1],not observed
same,increase in accumulation of junctional adhesion molecule (JAM),[1]; 48 and 72 hr vs 0 hr,~50%
same,increased accumulation of E-cadherin,[1]; 8 hr,2 fold
same,"increased accumulation of occludin, ZO-1, ZO-2 and claudin-5","[1]; 8 hr, densitometric analysis",3- to 6 fold
same,accumulation of occludin and ZO-1 (specificity),"[1]; 8 hr, peptides 8 μg/ml, EGF 50 ng/ml",enhanced accumulation
same,ZO-1 and occludin levels in the insoluble fraction versus vehicle,[1]; after oxidant injury,two-fold
same,"accumulation of occludin and claudin-5, basolateral exposure","[1]; basolateral compartment of Transwell, 8 hr",increased accumulation
same,Hsc73 expression,[1]; exposure up to 18 hr,not altered
same,increase in occludin immunoreactivity compared to control,"[1]; non-injured cells, after 2 hr",65%
same,increase in ZO-1 immunoreactivity compared to control,"[1]; non-injured cells, at 8 hr",65%
same,occludin immunoreactivity versus vehicle-treated control cells,"[1]; peptide 8 μg/ml, 18 hr, listed as AMP peptide",double
same,growth stimulation of HeLa cells,HeLa cells,does not stimulate growth
same,growth stimulation of HeLa cells,HeLa cells; listed as AMP peptide,failure
same,growth of NCI N-87 cells,NCI N-87 cells,stimulated
same,appearance of blood in the stool (bloody diarrhea) versus vehicle,"[2]; 3% DSS, 10 mg/kg body weight/day s.c., listed as AMP peptide, 10 mg/kg/day",fewer animals; also recorded: delayed
same,body weight loss versus vehicle,"[2]; 3 days after switching from 3% DSS to water, 10 mg/kg s.c. daily",lost less weight
same,recovery of body weight,"[2]; day 7 after stopping DSS, listed as AMP peptide",complete recovery; also recorded: completely recovered
same,growth of Streptococcus agalactiae,Streptococcus agalactiae,did not alter the growth

# Source: US7629317B2, “Control of growth and repair of gastro-intestinal tissues by gastrokines and inhibitors” (The University of Chicago, priority 2001, dated 2009)
